Test results: patent US8084399B2, “Process for screening of a binding amphiphilic peptides specific for hairpin RNA” (priority 2009, dated 2011)
Where no end group is shown, it is not given here. [ ]: non-standard residue; d: D form. Dab = NCC[C@H](N)C(=O)O; Dap = NC[C@H](N)C(=O)O

What was measured:
[1] = molecular target: RRE hairpin RNA; test: Fluorescence anisotropy competition with Rev-N-rhodamine probe, binding to RRE hairpin RNA; set-up: species or system HIV; conditions: 20° C., pH 7.4, read-out: Dissociation constant, RRE
Procedure: (§1) Binding force to each target hairpin RNA (IRES, RRE, TAR and 16S A-site) was measured by fluorescence polarization using alanine scanned peptide library (1b-1h).
(§2) Particularly, […] of each target RNA was prepared at the concentration of 10 mM, which stood at 65° C. for 10 minutes and then cooled down slowly at room temperature, leading to folding. The amphiphilic peptide was prepared respectively at the concentration of […], which were maintained at 0° C. As a probe, rev peptide labeled with rhodamine (Rev-N-rhodamine) emitting […] fluorescence was prepared at the concentration of 10 mM. Buffer was composed of 140 mM NaCl, 5 mM KCl, 1 mM MgCl2, and 20 mM HEPES (N-2-Hydroxyethylpiperazine-N′-2-Ethanesulfonic Acid, pH 7.4). Fluorescence Anisotropy was measured using AMINCO-Bowman Series Luminescence Spectrometer at 20° C. Ten nM of the probe was added in […] of buffer, to which target RNA was added to induce interaction between the probe and the target RNA. At that time, anisotropy value increased. Then, the synthesized peptide competing with the probe for binding site was added thereto with increasing the concentration slowly. Changes of fluorescence polarization were measured until fluorescence polarization reached as low as the beginning. Considering the concentration and amount of the peptide added, binding force to target RNA was calculated. That is, the binding strength between target RNA and peptide was determined according to the following KaleidaGraph. [Peptide]=Kd(Amax−A)/[Kd(A−A0)+1]×[RNA]−Kd(A−A0)^2[Probe]0/(Amax−A)(Amax−A0)
(§3) Herein, [Peptide] indicates the concentration of peptide, [RNA] indicates the concentration of target RNA, and [Probe]0 indicates the concentration of probe. A is the value of fluorescence anisotropy of sample, Amax is the value of totally bound tracer, and A0 is the value of totally free tracer.

[2] = tested on: IRES domain IV hairpin; test: Fluorescence anisotropy competition with Rev-N-rhodamine probe, binding to IRES hairpin; set-up: species or system HCV; conditions: for differentiation coefficient (IRES): (mean Kd to other hairpin RNA)/(Kd to one hairpin RNA); for Kd: fluorescence anisotropy, 20° C., pH 7.4, read-out: Dissociation constant, IRES
Procedure: as §1, §2, §3

[3] = molecular target: TAR hairpin RNA; test: Fluorescence anisotropy competition with Rev-N-rhodamine probe, binding to TAR hairpin RNA; set-up: species or system HIV; conditions: fluorescence anisotropy, 20° C., pH 7.4; read-out: Dissociation constant, TAR
Procedure: as §1, §2, §3

[4] = Circular dichroism (CD), percentage of alpha-helix; format: physicochemical; conditions: CD at 20° C., condition not given; for Alpha-helical rate (%), second value of pair: value after the slash; for Alpha-helical rate (%), first value of pair: value before the slash
Procedure: To investigate alpha-helix of the amphiphilic peptide (1a-1h), circular dichroism (CD) was performed. Particularly, CD was measured at 20° C. by using JASCO model J715 spectropolarimeter. Scanning was performed at 190-250 nm three times (bandwidth: 1 nm, datapitch: 0.5 nm, speed: 100 nm/min), which were averaged to obtain CD data. Spectrum was corrected by measuring background spectrum. CD signal was recorded after modulating thereof with mean residue ellipticity [Q]. Percentage (%) of alpha-helix(fn) was calculated by the following formula. [Q]=Qobs[MRW/(10lc)]
MRW=mean residue weight (dividing molecular weight by the number of peptide bond, l=pathway length (cm), c=concentration (mg/mL). fn=([Q]222−[Q]coil)/([Q]helix−[Q]coil) [Q]helix=−40,000[…]+100t [Q]coil=640−45t
[Q]222=mean residue ellipticity at 222 nm (deg cm2 mol-1), [Q]helix=ellipticity of peptide having complete helical structure, [Q]coil=ellipticity of peptide having complete random coil structure, n=number of amino acid, t=° C.

[5] = molecular target: 16S ribosomal RNA A-site; test: Fluorescence anisotropy competition with Rev-N-rhodamine probe, binding to 16S A-site; conditions: 20° C., pH 7.4, read-out: Dissociation constant, 16S A-site
Procedure: as §1, §2, §3

Substance	Kd [1] [nM]	differentiation coefficient (IRES) [2]	Kd [2] [nM]	Kd [3] [nM]	Alpha-helical rate (%), second value of pair [4] [%]	Alpha-helical rate (%), first value of pair [4] [%]	Kd [5] [nM]	binding strength to IRES, in words ([2]; compared with the original peptide)
LKKLLKLLDabKLLKLAG (LKKLLKLL[Dab]KLLKLAG-NH2; N-terminus assumed; SMILES CC(C)C[C@H](NC(=O)[C@H](CCCCN)NC(=O)[C@H](CC(C)C)NC(=O)[C@H](CC(C)C)NC(=O)[C@H](CCCCN)NC(=O)[C@H](CCN)NC(=O)[C@H](CC(C)C)NC(=O)[C@H](CC(C)C)NC(=O)[C@H](CCCCN)NC(=O)[C@H](CC(C)C)NC(=O)[C@H](CC(C)C)NC(=O)[C@H](CCCCN)NC(=O)[C@H](CCCCN)NC(=O)[C@@H](N)CC(C)C)C(=O)N[C@@H](C)C(=O)NCC(N)=O) [2e, second generation peptide, hydrophilic face modified]	23	6.5	3.5	28	57	43	17	
LKKLLKLLDapKLLKLAG (LKKLLKLL[Dap]KLLKLAG-NH2; N-terminus assumed; SMILES CC(C)C[C@H](NC(=O)[C@H](CCCCN)NC(=O)[C@H](CC(C)C)NC(=O)[C@H](CC(C)C)NC(=O)[C@H](CCCCN)NC(=O)[C@H](CN)NC(=O)[C@H](CC(C)C)NC(=O)[C@H](CC(C)C)NC(=O)[C@H](CCCCN)NC(=O)[C@H](CC(C)C)NC(=O)[C@H](CC(C)C)NC(=O)[C@H](CCCCN)NC(=O)[C@H](CCCCN)NC(=O)[C@@H](N)CC(C)C)C(=O)N[C@@H](C)C(=O)NCC(N)=O) [2f, second generation peptide, hydrophilic face modified]	10	0.6	20	11	57	25	15	
LKKLLKLLKALLKLKG [1f, alanine scanned first generation peptide]	92	1.8	33	25	45	17	64	
LKKLLKLLKKLLALKG [1g, alanine scanned first generation peptide]	90	0.47	210	39	44	8	200	reduced binding strength
LKKLLKLLKKLLDabLAG (LKKLLKLLKKLL[Dab]LAG-NH2; N-terminus assumed; SMILES CC(C)C[C@H](NC(=O)[C@H](CCN)NC(=O)[C@H](CC(C)C)NC(=O)[C@H](CC(C)C)NC(=O)[C@H](CCCCN)NC(=O)[C@H](CCCCN)NC(=O)[C@H](CC(C)C)NC(=O)[C@H](CC(C)C)NC(=O)[C@H](CCCCN)NC(=O)[C@H](CC(C)C)NC(=O)[C@H](CC(C)C)NC(=O)[C@H](CCCCN)NC(=O)[C@H](CCCCN)NC(=O)[C@@H](N)CC(C)C)C(=O)N[C@@H](C)C(=O)NCC(N)=O) [2h, second generation peptide, hydrophilic face modified]	14	2.0	8.7	12	34	24	25	
LKKLLKLLKKLLDapLAG (LKKLLKLLKKLL[Dap]LAG-NH2; N-terminus assumed; SMILES CC(C)C[C@H](NC(=O)[C@H](CN)NC(=O)[C@H](CC(C)C)NC(=O)[C@H](CC(C)C)NC(=O)[C@H](CCCCN)NC(=O)[C@H](CCCCN)NC(=O)[C@H](CC(C)C)NC(=O)[C@H](CC(C)C)NC(=O)[C@H](CCCCN)NC(=O)[C@H](CC(C)C)NC(=O)[C@H](CC(C)C)NC(=O)[C@H](CCCCN)NC(=O)[C@H](CCCCN)NC(=O)[C@@H](N)CC(C)C)C(=O)N[C@@H](C)C(=O)NCC(N)=O) [2i, second generation peptide, hydrophilic face modified]	23	12	1.4	8.4	54	39	20	
